Blank lines part the entries; values can stand above or below the molecule they belong to.
Tests used:
[1] = system: HCT-116; experiment: Antitumor activity against human HCT116 cells xenografted in BALB/c athymic nude mouse assessed as tumor growth inhibition at 20 mg/kg administered twice daily for 14 days and measuring daily during compound dosing relative to control; assay type: functional; details: HCT-116, 336 h, time 14 day, read-out: TGI
[2] = system: SH-SY5Y; experiment: Antiproliferative activity against human SH-SY5Y cells incubated for 72 hrs by sulphorhodamine B assay; assay type: functional, cell-based
[3] = system: KMS-11; experiment: Antiproliferative activity against human KMS-11 cells incubated for 72 hrs by sulphorhodamine B assay; assay type: functional
[4] = target: T1, Protein deacetylase HDAC6 (Homo sapiens, UniProt Q9UBN7); experiment: Inhibition of HDAC6 (unknown origin) using (AMC)-labelled p53 peptide( 379 to 382 residues) RHKKAc as substrate
T1 sequence (Q9UBN7 whole entry): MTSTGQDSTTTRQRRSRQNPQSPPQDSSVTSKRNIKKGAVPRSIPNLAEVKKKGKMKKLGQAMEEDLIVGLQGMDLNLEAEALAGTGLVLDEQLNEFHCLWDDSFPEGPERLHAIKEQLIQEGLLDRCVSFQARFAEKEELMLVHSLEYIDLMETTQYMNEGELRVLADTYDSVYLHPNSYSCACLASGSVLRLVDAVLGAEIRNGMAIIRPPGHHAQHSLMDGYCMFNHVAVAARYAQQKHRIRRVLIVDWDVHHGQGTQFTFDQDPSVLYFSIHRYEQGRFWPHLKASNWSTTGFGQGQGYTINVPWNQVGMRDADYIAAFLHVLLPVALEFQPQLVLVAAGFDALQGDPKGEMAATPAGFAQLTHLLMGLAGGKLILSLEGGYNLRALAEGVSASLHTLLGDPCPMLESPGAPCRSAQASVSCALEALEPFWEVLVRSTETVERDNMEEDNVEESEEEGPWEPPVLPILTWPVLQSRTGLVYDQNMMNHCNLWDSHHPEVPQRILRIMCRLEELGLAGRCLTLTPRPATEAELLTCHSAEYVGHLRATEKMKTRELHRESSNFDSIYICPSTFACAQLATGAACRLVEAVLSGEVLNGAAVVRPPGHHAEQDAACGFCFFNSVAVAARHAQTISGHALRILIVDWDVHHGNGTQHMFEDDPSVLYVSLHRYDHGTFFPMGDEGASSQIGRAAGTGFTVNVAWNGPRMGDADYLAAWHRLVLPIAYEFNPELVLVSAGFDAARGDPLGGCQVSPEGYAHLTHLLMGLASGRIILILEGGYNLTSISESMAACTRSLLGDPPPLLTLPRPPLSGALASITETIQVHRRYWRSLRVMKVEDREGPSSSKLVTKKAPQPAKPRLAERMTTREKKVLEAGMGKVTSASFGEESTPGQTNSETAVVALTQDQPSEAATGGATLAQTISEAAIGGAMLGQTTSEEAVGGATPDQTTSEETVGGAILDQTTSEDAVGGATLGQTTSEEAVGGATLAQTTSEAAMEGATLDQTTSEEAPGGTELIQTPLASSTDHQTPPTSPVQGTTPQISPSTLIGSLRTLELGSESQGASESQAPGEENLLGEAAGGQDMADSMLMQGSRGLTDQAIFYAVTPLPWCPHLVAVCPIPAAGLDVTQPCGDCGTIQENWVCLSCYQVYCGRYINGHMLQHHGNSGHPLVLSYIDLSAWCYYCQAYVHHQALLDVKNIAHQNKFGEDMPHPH

[5] = target: T2, Histone deacetylase 1 (Homo sapiens, UniProt Q13547); experiment: Inhibition of HDAC1 (unknown origin) using (AMC)-labelled p53 peptide( 379 to 382 residues) RHKKAc as substrate
T2 sequence (Q13547 whole entry, the tested form may be a part): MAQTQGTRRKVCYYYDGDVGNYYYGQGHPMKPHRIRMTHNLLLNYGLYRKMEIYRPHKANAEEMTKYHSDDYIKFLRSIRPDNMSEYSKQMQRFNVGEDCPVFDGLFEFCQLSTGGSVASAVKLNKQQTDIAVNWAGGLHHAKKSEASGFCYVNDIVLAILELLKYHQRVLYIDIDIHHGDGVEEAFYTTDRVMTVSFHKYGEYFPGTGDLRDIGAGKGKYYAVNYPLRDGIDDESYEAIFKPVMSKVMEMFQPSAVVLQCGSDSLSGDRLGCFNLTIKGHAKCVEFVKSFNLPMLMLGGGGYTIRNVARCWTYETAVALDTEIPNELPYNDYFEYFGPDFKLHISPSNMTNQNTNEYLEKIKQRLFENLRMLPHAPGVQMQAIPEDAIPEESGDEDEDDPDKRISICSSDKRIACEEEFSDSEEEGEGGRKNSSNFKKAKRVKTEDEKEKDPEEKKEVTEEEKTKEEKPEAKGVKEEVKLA

[6] = target: Histone deacetylase 9 (Homo sapiens, UniProt Q9UKV0); experiment: Inhibition of human HDAC9 using fluorogenic HDAC substrate incubated for 30 mins by fluorimetry
Sequence of Histone deacetylase 9 (Q9UKV0 whole entry): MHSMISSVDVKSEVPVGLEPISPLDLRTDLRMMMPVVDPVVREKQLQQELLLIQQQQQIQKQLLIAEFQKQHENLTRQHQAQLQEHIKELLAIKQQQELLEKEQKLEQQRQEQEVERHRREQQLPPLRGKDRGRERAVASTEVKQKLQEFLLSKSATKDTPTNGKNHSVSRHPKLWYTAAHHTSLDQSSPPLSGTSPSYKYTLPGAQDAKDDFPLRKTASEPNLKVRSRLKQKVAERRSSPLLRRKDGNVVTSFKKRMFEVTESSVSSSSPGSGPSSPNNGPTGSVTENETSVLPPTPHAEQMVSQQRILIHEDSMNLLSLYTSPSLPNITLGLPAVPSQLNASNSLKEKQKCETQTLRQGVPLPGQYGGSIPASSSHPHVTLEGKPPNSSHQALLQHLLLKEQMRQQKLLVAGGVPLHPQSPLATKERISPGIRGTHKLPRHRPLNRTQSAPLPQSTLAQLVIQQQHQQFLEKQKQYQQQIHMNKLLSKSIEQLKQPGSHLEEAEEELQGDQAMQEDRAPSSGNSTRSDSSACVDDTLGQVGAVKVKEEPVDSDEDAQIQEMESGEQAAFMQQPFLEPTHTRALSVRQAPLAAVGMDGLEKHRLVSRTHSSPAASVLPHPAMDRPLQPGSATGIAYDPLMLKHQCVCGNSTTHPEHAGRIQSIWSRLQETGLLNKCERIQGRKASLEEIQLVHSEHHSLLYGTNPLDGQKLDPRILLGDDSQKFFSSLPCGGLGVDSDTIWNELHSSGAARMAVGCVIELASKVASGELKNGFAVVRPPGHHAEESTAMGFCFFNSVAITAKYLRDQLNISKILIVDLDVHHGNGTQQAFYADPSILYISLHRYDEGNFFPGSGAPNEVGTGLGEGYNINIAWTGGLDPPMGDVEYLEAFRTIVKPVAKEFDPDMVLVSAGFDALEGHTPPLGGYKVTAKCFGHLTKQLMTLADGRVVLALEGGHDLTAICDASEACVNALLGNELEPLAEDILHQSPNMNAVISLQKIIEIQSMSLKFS

[7] = target: Histone deacetylase 8 (Homo sapiens, UniProt Q9BY41); experiment: Inhibition of human HDAC8 using fluorogenic HDAC substrate incubated for 60 mins by fluorimetry
[8] = target: Histone deacetylase 5 (Homo sapiens, UniProt Q9UQL6); experiment: Inhibition of human HDAC5 using fluorogenic HDAC substrate incubated for 30 mins by fluorimetry
Sequence of Histone deacetylase 5 (Q9UQL6 whole entry): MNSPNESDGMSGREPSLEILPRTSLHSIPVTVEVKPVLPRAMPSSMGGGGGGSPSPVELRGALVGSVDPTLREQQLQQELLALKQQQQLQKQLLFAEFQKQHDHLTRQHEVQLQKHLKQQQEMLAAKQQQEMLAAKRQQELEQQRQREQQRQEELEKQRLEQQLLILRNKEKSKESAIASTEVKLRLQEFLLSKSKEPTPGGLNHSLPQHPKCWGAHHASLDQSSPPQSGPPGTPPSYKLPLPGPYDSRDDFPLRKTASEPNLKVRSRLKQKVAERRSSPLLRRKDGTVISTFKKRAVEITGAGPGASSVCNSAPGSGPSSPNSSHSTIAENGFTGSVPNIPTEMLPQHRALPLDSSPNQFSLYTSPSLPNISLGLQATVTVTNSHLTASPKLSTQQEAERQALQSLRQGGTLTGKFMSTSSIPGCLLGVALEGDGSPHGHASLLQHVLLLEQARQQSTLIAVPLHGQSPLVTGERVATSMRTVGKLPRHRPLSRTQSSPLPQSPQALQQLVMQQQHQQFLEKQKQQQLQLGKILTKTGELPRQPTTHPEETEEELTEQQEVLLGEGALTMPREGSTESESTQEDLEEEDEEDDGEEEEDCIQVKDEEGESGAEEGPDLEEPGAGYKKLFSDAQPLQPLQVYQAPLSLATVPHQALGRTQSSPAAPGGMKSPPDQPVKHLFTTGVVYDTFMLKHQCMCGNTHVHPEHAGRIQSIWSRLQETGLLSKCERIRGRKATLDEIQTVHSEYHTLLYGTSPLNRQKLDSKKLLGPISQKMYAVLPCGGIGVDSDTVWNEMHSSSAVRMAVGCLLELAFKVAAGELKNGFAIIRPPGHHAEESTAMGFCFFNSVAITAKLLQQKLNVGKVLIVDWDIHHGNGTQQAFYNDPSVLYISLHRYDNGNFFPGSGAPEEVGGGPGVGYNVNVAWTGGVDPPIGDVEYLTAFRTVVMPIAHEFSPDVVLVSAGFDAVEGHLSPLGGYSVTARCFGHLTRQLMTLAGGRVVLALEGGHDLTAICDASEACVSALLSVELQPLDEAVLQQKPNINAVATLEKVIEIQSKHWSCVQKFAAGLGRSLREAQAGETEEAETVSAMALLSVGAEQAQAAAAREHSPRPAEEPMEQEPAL

[9] = target: Histone deacetylase 4 (Homo sapiens, UniProt P56524); experiment: Inhibition of human HDAC4 using fluorogenic HDAC substrate incubated for 30 mins by fluorimetry
[10] = target: Histone deacetylase 11 (Homo sapiens, UniProt Q96DB2); experiment: Inhibition of human HDAC11 using fluorogenic HDAC substrate incubated for 30 mins by fluorescence method
Sequence of Histone deacetylase 11 (Q96DB2 whole entry): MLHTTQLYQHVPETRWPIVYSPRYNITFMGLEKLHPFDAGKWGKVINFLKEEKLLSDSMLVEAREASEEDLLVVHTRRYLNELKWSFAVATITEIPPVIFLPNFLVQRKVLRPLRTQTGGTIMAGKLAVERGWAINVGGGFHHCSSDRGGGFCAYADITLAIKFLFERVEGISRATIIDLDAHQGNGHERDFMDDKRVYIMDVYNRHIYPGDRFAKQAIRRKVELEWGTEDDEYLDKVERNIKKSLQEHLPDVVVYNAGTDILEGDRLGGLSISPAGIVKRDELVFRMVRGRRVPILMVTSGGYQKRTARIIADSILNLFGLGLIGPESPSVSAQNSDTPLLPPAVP

[11] = target: T3, Polyamine deacetylase HDAC10 (Homo sapiens, UniProt Q969S8); experiment: Inhibition of human HDAC10 using fluorogenic HDAC substrate incubated for 45 mins by fluorimetry
T3 sequence (Q969S8 whole entry): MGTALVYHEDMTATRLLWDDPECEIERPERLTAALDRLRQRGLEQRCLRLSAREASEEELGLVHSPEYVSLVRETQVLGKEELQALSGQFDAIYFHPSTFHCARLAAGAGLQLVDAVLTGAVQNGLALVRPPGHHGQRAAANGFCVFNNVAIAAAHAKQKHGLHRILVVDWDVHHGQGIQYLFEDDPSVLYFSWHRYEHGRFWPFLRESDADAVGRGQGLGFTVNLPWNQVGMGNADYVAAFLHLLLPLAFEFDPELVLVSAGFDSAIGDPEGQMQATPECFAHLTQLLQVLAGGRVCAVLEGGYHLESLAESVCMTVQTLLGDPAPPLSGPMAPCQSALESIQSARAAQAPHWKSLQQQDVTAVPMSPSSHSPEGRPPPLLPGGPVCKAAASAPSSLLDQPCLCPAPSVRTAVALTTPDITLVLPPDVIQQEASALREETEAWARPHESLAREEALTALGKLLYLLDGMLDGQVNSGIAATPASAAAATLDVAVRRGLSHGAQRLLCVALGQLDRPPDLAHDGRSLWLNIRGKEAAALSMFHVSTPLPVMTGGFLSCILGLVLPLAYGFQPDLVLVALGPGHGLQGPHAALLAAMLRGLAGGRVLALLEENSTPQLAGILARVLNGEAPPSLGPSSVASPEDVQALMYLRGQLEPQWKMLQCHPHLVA

[12] = target: Histone deacetylase 3 (Homo sapiens, UniProt O15379); experiment: Inhibition of human HDAC3 using fluorogenic HDAC substrate incubated for 10 mins by spectrophotometric method
Sequence of Histone deacetylase 3 (O15379 whole entry): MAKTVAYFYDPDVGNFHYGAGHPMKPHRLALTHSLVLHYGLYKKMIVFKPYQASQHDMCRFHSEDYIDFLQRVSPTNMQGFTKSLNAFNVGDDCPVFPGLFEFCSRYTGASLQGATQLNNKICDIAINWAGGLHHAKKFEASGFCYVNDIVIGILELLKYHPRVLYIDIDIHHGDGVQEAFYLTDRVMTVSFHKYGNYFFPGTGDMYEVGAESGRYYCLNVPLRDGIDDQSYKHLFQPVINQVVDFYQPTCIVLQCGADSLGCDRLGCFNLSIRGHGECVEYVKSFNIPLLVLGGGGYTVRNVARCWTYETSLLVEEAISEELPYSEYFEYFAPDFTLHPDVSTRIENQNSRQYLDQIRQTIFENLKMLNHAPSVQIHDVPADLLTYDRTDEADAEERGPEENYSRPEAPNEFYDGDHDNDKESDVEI

[13] = target: T4, Histone deacetylase 2 (Homo sapiens, UniProt Q92769); experiment: Inhibition of human HDAC2 using fluorogenic HDAC substrate incubated for 15 mins by fluorimetry
T4 sequence (Q92769 whole entry): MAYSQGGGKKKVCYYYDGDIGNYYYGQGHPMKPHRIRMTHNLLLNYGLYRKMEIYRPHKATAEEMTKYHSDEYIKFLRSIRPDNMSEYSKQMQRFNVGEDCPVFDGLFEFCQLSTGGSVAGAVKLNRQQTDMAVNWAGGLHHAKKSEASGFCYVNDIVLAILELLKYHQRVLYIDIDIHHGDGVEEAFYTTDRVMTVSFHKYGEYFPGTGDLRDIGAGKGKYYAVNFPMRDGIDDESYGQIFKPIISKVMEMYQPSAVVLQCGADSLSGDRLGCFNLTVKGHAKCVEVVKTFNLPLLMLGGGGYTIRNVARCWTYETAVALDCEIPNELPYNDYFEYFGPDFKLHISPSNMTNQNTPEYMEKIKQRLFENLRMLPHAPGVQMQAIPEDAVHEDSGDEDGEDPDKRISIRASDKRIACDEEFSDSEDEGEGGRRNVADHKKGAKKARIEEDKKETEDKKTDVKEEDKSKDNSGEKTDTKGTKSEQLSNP

[14] = target: T1, Protein deacetylase HDAC6; experiment: Inhibition of human HDAC6 using fluorogenic HDAC substrate incubated for 30 mins by fluorimetry
[15] = target: T2, Histone deacetylase 1; experiment: Inhibition of human HDAC1 using fluorogenic HDAC substrate incubated for 15 mins by fluorimetry
[16] = system: HEK293T; experiment: Selectivity ratio of IC50 for Flag-tagged HDAC1 (unknown origin) expressed in 293T cells to IC50 for Flag-tagged HDAC6 (unknown origin) expressed in 293T cells; assay type: cell-based; details: Homo sapiens
[17] = target: T1, Protein deacetylase HDAC6; experiment: Inhibition of Flag-tagged HDAC6 (unknown origin) expressed in 293T cells using ZMAL as substrate incubated for 180 mins by fluorescence method; design: species or system HEK293T
[18] = system: CAL-27; experiment: Antiproliferative activity against human Cal-27 cells by MTT assay; assay type: functional, cell-based
[19] = system: A2780; experiment: Antiproliferative activity against human A2780 cells by MTT assay; assay type: functional, cell-based
[20] = target: T4, Histone deacetylase 2; experiment: Inhibition of human HDAC2 using p53 fluorogenic peptide (379 to 382 residues) RHKKAc as substrate by fluorescence-based assay
[21] = target: T1, Protein deacetylase HDAC6; experiment: Inhibition of human HDAC6 using p53 fluorogenic peptide (379 to 382 residues) RHKKAc as substrate by fluorescence-based assay
[22] = target: T2, Histone deacetylase 1; experiment: Inhibition of human HDAC1 using p53 fluorogenic peptide (379 to 382 residues) RHKKAc as substrate by fluorescence-based assay
[23] = system: HCT-116; experiment: Antiproliferative activity against human HCT116 cells incubated for 72 hrs by MTT assay; assay type: functional, cell-based; details: HCT-116, 72 h
[24] = system: PC-3; experiment: Antiproliferative activity against human PC3 cells incubated for 72 hrs by MTT assay; assay type: functional, cell-based; details: PC-3, 72 h
[25] = target: T1, Protein deacetylase HDAC6; experiment: Inhibition of human full-length recombinant HDAC6 using fluorogenic peptide […] (RHKK(Ac)) as substrate by fluorescence method
[26] = target: T2, Histone deacetylase 1; experiment: Inhibition of human full-length recombinant HDAC1 using p53 fluorogenic peptide ([…] residues) (RHKK(Ac)) as substrate by fluorescence method
[27] = target: T4, Histone deacetylase 2; experiment: Inhibition of human full-length recombinant HDAC2 using fluorogenic peptide ([…] residues) (RHKK(Ac)) as substrate by fluorescence method
[28] = target: Histone deacetylase; experiment: Inhibition of HDAC in human HeLa cell extracts using Fluor de lys as substrate incubated for 30 mins by fluorimetric analysis
[29] = target: NAD-dependent protein deacetylase sirtuin-2 (Homo sapiens, UniProt Q8IXJ6); experiment: Inhibition of human sirtuin 2 using fluoro-lysine sirtuin 2 deacetylase as substrate incubated for 60 mins by fluorimetry
Sequence of NAD-dependent protein deacetylase sirtuin-2 (Q8IXJ6 whole entry): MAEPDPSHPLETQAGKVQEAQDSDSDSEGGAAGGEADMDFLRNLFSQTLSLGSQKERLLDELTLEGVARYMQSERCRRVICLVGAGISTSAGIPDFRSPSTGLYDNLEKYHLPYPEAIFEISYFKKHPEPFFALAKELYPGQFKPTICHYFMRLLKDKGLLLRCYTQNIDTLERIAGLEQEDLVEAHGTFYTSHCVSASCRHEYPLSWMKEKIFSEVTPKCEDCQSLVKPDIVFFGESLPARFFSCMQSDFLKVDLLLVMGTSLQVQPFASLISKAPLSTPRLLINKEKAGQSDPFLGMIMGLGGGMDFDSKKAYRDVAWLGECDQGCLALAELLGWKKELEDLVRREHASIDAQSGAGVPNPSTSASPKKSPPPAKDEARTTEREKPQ

[30] = target: NAD-dependent protein deacetylase sirtuin-1 (Homo sapiens, UniProt Q96EB6); experiment: Inhibition of human sirtuin 1 using fluorogenic HDAC substrate incubated for 20 mins by fluorimetry
Sequence of NAD-dependent protein deacetylase sirtuin-1 (Q96EB6 whole entry): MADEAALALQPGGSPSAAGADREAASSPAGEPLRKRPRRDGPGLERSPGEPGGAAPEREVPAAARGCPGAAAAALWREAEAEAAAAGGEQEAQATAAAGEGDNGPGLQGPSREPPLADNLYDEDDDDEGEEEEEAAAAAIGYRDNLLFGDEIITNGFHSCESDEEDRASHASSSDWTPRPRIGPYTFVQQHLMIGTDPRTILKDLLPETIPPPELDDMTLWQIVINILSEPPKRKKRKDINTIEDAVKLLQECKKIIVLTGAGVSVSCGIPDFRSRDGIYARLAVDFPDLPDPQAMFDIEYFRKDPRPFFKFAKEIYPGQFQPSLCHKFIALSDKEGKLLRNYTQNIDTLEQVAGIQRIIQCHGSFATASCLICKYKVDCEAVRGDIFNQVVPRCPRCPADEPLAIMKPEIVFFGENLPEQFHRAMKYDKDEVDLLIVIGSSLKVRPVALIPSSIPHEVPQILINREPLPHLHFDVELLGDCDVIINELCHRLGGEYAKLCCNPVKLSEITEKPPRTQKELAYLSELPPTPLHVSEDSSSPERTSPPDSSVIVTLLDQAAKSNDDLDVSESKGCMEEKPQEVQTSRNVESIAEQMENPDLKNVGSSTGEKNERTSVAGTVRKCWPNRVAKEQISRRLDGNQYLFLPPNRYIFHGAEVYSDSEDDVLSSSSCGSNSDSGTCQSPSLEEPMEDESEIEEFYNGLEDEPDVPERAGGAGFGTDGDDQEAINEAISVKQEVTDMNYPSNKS

[31] = system: OPM-2; experiment: Cytotoxicity against human OPM-2 cells incubated for 48 hrs by MTT assay; assay type: functional, cell-based; details: OPM-2, 48 h
[32] = system: MM1.S; experiment: Cytotoxicity against human MM1.S cells incubated for 48 hrs by MTT assay; assay type: functional, cell-based

Structure (SMILES): CC(/C=C/C(=O)NO)=C\c1ccc(NS(=O)(=O)c2ccc(N(CCCl)CCCl)cc2)cc1
inhibition in vivo at 20 mg/kg [1]: 78% | IC50 [2]: 280 nM | GI50 [3]: 480 nM | IC50 [4]: 479 nM | IC50 [5]: 14000 nM

Structure (SMILES): O=C(NO)c1ccc(Cn2c3c(c4ccccc42)S(=O)(=O)CC3)cc1
IC50 [6]: 100 nM | IC50 [7]: 1000 nM | IC50 [8]: 1000 nM | IC50 [9]: 1000 nM | IC50 [10]: > 5000 nM | IC50 [11]: > 5000 nM | IC50 [12]: > 5000 nM | IC50 [13]: > 5000 nM | IC50 [14]: 8.2 nM | IC50 [15]: > 5000 nM

Structure (SMILES): COC(=O)[C@@H](Cc1ccccn1)NC(=O)CCCCCCC(=O)NO
Ratio IC50 [16]: 20 | IC50 [17]: 4010 nM

Structure (SMILES): O=C(/C=C/c1cccn(CCCc2ccc3ccccc3c2)c1=O)NO
IC50 [25]: 2.46 nM | IC50 [26]: 19.4 nM | IC50 [27]: 128 nM | IC50 [28]: 70 nM

Structure (SMILES): O=C(CCCCCCNC(=O)c1cnc(N(c2ccccc2)c2ccccc2)nc1)NO [RICOLINOSTAT]
IC50 [29]: > 1000 nM | IC50 [30]: > 1000 nM | IC50 [31]: 2000 nM | IC50 [32]: 2000 nM

Continued, in another order:

IC50 [19]: 340 nM | IC50 [20]: 200 nM | IC50 [21]: 1.59 nM
Structure (SMILES): CN(C)c1ccc(C(=O)N(CC(=O)NC2CCCCC2)Cc2ccc(C(=O)NO)cc2)cc1
IC50 [18]: 2040 nM

IC50 [20]: 5500 nM | IC50 [21]: 12.4 nM | IC50 [22]: 1710 nM | IC50 [23]: 8080 nM | IC50 [24]: 11400 nM
Structure (SMILES): O=C(NO)c1ccc(Cn2c(=O)c(F)cn(C3CCCO3)c2=O)cc1 (centres undefined)

From ChEMBL document CHEMBL4673207, “Recent advances in the discovery of potent and selective HDAC6 inhibitors” (Eur J Med Chem, 2018)
